Results on 17 molecules are retold here after ChEMBL document CHEMBL1152894, “Novel CYP17 inhibitors: synthesis, biological evaluation, structure-activity relationships and modelling of methoxy- and hydroxy-substituted methyleneimidazolyl biphenyls” (Eur J Med Chem, 2009).

The target of data set [1] is T1, Steroid 17-alpha-hydroxylase/17,20 lyase (Homo sapiens, UniProt P05093).
T1 sequence (P05093 whole entry): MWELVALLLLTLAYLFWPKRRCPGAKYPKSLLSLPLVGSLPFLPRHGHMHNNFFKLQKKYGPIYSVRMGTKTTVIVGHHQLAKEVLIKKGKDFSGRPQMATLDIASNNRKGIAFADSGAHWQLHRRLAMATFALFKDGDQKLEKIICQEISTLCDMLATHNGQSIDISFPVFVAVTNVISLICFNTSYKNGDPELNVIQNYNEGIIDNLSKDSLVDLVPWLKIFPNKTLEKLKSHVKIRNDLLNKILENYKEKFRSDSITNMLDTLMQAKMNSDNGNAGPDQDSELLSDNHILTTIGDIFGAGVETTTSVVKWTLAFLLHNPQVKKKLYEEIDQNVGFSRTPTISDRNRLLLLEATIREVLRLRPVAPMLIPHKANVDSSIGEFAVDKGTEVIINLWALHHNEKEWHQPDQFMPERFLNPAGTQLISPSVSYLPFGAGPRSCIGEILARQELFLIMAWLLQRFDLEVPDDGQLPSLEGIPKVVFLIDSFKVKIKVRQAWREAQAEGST
Description: Inhibition of human CYP17 expressed in Escherichia coli coexpressing NADPH-P450 reductase.

The target of data set [2] is T1, Steroid 17-alpha-hydroxylase/17,20 lyase. The experiment in a line: Inhibition of human CYP17 expressed in Escherichia coli coexpressing NADPH-P450 reductase at 0.2 uM.
For data set [3] the target is unchanged. Description: Inhibition of human CYP17 expressed in Escherichia coli coexpressing NADPH-P450 reductase at 2 uM.
Data set [4] deals with T2, CYP11B1 (Homo sapiens, UniProt P15538).
T2 sequence (P15538 whole entry): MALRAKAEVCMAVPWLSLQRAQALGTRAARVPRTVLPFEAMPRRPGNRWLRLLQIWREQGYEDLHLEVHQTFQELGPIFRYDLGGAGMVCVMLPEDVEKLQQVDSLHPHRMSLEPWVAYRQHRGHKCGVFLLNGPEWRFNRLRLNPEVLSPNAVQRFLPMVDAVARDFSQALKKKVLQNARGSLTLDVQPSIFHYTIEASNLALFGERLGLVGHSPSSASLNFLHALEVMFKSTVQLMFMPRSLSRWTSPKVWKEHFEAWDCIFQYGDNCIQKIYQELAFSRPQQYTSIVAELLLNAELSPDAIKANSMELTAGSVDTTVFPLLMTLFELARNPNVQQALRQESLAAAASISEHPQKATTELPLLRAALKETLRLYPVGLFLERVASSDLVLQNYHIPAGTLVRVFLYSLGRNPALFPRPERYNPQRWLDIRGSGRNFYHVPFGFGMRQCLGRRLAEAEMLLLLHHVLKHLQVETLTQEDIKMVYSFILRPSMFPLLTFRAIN
Description: Inhibition of recombinant CYP11B1 expressed in V79MZh11B1 cells at 0.2 uM. As to conditions: hamster, V79MZh11B1 cells expressing recombinant CYP11B1. The data set is classed as cell-based.

Data set [5] concerns the target T2, CYP11B1. The experiment in a line: Inhibition of recombinant CYP11B1 expressed in expressed in V79MZh11B1 cells at 2 uM. The data set is classed as cell-based. As to conditions: hamster, V79MZh11B1 cells expressing recombinant CYP11B1.
In data set [6] the target is T3, CYP3A4 (Homo sapiens, UniProt P08684). The experiment in a line: (§1) Inhibition of recombinant CYP3A4 expressed in baculovirus-infected insect microsome at 1 uM. In kind it is ADME. To be noted: human.
Data set [7] has as its target T3, CYP3A4. Description: Inhibition of recombinant CYP3A4 expressed in baculovirus-infected insect microsome at 10 uM. In kind it is ADME.
Data set [8] addresses T1, Steroid 17-alpha-hydroxylase/17,20 lyase. Description: Ratio of ketoconazole to drug against IC50 for human CYP17 expressed in Escherichia coli coexpressing NADPH-P450 reductase.
Another data set has as its target Cytochrome P450 3A4 (Homo sapiens, UniProt P08684). Described as §1. In kind it is ADME.
For data set [9], the target named is T4, Cytochrome P450 11B1, mitochondrial (Homo sapiens, UniProt P15538).
T4 sequence (P15538 whole entry): T2 sequence (P15538 whole entry)
Description: Inhibition of recombinant CYP11B1 expressed in expressed in V79MZh11B1 cells. The data set is classed as cell-based.

pIC50: −log10 of the molar value.

T3 sequence (P08684 whole entry): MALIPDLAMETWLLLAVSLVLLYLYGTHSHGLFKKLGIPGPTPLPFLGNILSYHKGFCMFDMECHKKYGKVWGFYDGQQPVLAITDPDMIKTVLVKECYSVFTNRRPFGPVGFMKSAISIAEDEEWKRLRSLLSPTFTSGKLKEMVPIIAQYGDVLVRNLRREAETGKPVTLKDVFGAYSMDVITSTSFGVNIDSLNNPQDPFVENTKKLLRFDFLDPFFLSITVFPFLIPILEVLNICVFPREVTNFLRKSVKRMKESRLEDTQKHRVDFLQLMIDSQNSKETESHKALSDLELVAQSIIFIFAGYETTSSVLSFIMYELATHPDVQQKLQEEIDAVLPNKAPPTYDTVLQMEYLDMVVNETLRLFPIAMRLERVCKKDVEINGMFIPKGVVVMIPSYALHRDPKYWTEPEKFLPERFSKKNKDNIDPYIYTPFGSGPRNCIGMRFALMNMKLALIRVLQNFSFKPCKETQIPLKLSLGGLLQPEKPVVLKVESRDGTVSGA
Cytochrome P450 3A4, sequence (P08684 whole entry): as above

A word on the pIC50: it is −log10 of the IC50, conventionally taken in molar units. By inhibition is commonly meant the share of the control response that was lost under treatment. Regarding `CCC(c1ccc(-c2ccc(O)cc2)cc1)n1ccnc1` (racemic), the pIC50 in [1] was 6.64. The inhibition at 0.2 µM in [2] turned out to be 27%; on CYP11B1 [4], 89%. The inhibition at 2 µM in data set [3] was determined as 80%; at CYP11B1 [5], 95%. Besides, the inhibition at 1 µM at CYP3A4 [6] was found to be 87%. The inhibition at 10 µM at CYP3A4 [7] worked out at 91%.
`CCC(c1ccc(-c2cccc(OC)c2)cc1)n1ccnc1` (racemic) gave a pIC50 in data set [1] of 6.73. The inhibition at 0.2 µM in data set [2] came to 31%; on CYP11B1 [4], 84%. Moreover, the inhibition at 2 µM in data set [3] amounted to 83%; at CYP11B1 [5], 96%. Further, the inhibition at 1 µM at CYP3A4 [6] was determined as 80%. Also, the inhibition at 10 µM on CYP3A4 [7] was determined as 92%.
Consider `CCC(c1ccc(-c2ccc(O)c(Cl)c2)cc1)n1ccnc1` (racemic), for which the pIC50 in [1] is 6.66; at Cytochrome P450 3A4, 7.04. Further, the inhibition at 0.2 µM stood at 44% in [2] and 89% on CYP11B1 [4]. In addition, the results for the inhibition at 2 µM (in data set [3]; on CYP11B1 [5]) were 89% and 96%, respectively. Also, in [8], the “Ratio IC50” value was 50. Also, at CYP3A4 [7], the inhibition at 10 µM stood at 99%.
In [2], `CCC(c1ccc(-c2ccc(OC)c(OC)c2)cc1)n1ccnc1` (racemic) registered an inhibition at 0.2 µM of 9%. In addition, in data set [3], the inhibition at 2 µM is 58%. Besides, the inhibition at 1 µM at CYP3A4 [6] was determined as 70%. The inhibition at 10 µM on CYP3A4 [7] came out at 93%.
In the case of `CCC(c1ccc(-c2ccc(O)c(O)c2)cc1)n1ccnc1` (racemic), the pIC50 in [1] was 6.82. The inhibition at 0.2 µM stood at 56% in data set [2] and 38% on CYP11B1 [4]. Besides, the inhibition at 2 µM was 91% in data set [3] and 92% at CYP11B1 [5]. For the same molecule, on CYP3A4 [6], the inhibition at 1 µM was determined as 91%. In addition, the inhibition at 10 µM on CYP3A4 [7] is 99%.
For `CCC(c1ccc(-c2ccc(OC)cc2)cc1)n1ccnc1` (racemic), in [2], the inhibition at 0.2 µM was 2%. Also, in [3], the inhibition at 2 µM was 36%. Also, the inhibition at 1 µM on CYP3A4 [6] was 73%. The inhibition at 10 µM on CYP3A4 [7] stood at 80%.
With `CCC(c1ccc(-c2ccc(O)cc2)cc1F)n1ccnc1` (racemic), the pIC50 in data set [1] was 7.05. Besides, the inhibition at 0.2 µM amounted to 64% in data set [2] and 89% on CYP11B1 [4]. Also, the values for the inhibition at 2 µM (in data set [3]; on CYP11B1 [5]) were 94% and 97%, respectively. Moreover, the inhibition at 1 µM at CYP3A4 [6] worked out at 86%. The inhibition at 10 µM on CYP3A4 [7] came to 91%.
In turn, `CCC(c1ccc(-c2cccc(O)c2)cc1)n1ccnc1` (racemic) had a pIC50 in data set [1] of 6.79. Moreover, the inhibition at 0.2 µM in data set [2] worked out at 55%; on CYP11B1 [4], 90%. The inhibition at 2 µM in data set [3] is 89%; on CYP11B1 [5], 95%. In addition, the inhibition at 1 µM at CYP3A4 [6] was found to be 84%. Further, on CYP3A4 [7], the inhibition at 10 µM came to 88%.
In data set [1], `CCC(c1ccc(-c2cc(C)c(O)c(C)c2)cc1)n1ccnc1` (racemic) had a pIC50 of 6.42. Besides, the inhibition at 0.2 µM in [2] is 28%; at CYP11B1 [4], 45%. In addition, the results for the inhibition at 2 µM (in data set [3]; on CYP11B1 [5]) were 78% and 85%, respectively. In addition, the “Ratio IC50” value in data set [8] amounted to 50. Also, at CYP3A4 [6], the inhibition at 1 µM worked out at 94%. The inhibition at 10 µM at CYP3A4 [7] is 100%.
`CCC(c1ccc(-c2ccc(O)c(C)c2)cc1)n1ccnc1` (racemic) gave a pIC50 in [1] of 6.58. Also, the inhibition at 0.2 µM turned out to be 45% in [2] and 91% on CYP11B1 [4]. Moreover, the inhibition at 2 µM was determined as 89% in data set [3] and 96% on CYP11B1 [5]. The “Ratio IC50” value in data set [8] worked out at 50. Moreover, at CYP3A4 [6], the inhibition at 1 µM amounted to 93%. In addition, the inhibition at 10 µM at CYP3A4 [7] is 98%.
In [2], `COc1cccc(-c2ccc(C(C)n3ccnc3)cc2)c1` (racemic) had an inhibition at 0.2 µM of 8%. In addition, in data set [3], the inhibition at 2 µM is 59%.
On the same counts, the results for `COc1ccc(-c2ccc(C(C)n3ccnc3)cc2)cc1` (racemic) are 9% and 40%.
Turning to `CCC(c1ccc(-c2cc(O)cc(O)c2)cc1)n1ccnc1` (racemic), in [1], the negative logarithm of the IC50 (pIC50) is 6.71. Besides, the values for the inhibition at 0.2 µM (in [2]; at CYP11B1 [4]) were 48% and 93%, respectively. For the same molecule, the figures for the inhibition at 2 µM (in data set [3]; at CYP11B1 [5]) were 90% and 97%, respectively. Moreover, the inhibition at 1 µM at CYP3A4 [6] was determined as 90%. Further, on CYP3A4 [7], the inhibition at 10 µM is 99%.
Turning to `CCC(c1ccc(-c2ccc(O)c(O)c2)cc1F)n1ccnc1` (racemic), the pIC50 in data set [1] is 7.28. In addition, the inhibition at 0.2 µM in data set [2] is 69%; at CYP11B1 [4] it was 51%. In addition, the inhibition at 2 µM in data set [3] came to 95%; at CYP11B1 [5], 90%. In addition, the inhibition at 1 µM at CYP3A4 [6] is 93%. Further, at CYP3A4 [7], the inhibition at 10 µM came to 100%.
Turning to `CCOc1ccc(-c2ccc(C(CC)n3ccnc3)cc2)cc1` (racemic), testing at 0.2 µM in data set [2] gave an inhibition of 3%. Also, the inhibition at 2 µM in [3] is 25%.
`C[C@]12CC[C@H](O)CC1=CC[C@@H]1[C@@H]2CC[C@]2(C)C(c3cccnc3)=CC[C@@H]12` [ABIRATERONE]: the pIC50 in data set [9] is 5.79.
On to `CC(=O)N1CCN(c2ccc(OCC3COC(Cn4ccnc4)(c4ccc(Cl)cc4Cl)O3)cc2)CC1` (stereo not given) [KETOCONAZOLE], for which the inhibition at 0.2 µM at CYP11B1 [4] was found to be 61%. In addition, on CYP11B1 [5], the inhibition at 2 µM is 93%.
